The subject of data set [1] is Mus musculus. Briefly: Hepatotoxicity in ob/ob mouse assessed as AST level at 20 mg/kg, po administered BID for 28 days measured st 16 hrs post-last dose (reference value: 332.2+/-39.1 U/L). In kind it is toxicity, organism-based. On the set-up: dose 20 mg/kg, route oral. Particulars: in vivo.
Data set [2] concerns Mus musculus. Briefly: Hepatotoxicity in ob/ob mouse assessed as ALT level at 20 mg/kg, po administered BID for 28 days measured st 16 hrs post-last dose (reference value: 259.4+/-18.6 U/L). In kind it is toxicity, organism-based. Particulars: in vivo. Also noted: dose 20 mg/kg, route oral.
For data set [3], the system named is Mus musculus. Briefly: Antidiabetic activity in po dosed ob/ob mouse assessed as decrease in post-prandial blood glucose level administered BID for 28 days measured 16 hrs post-last dose. In kind it is functional, organism-based.
Data set [4] deals with Mus musculus. Briefly: Antihyperlipidemic activity in ob/ob mouse assessed as free fatty acid level at 10 mg/kg, po administered BID for 28 days measured 16 hrs post-last dose (reference value: 1.96+/-0.09 mEq/L). In kind it is functional.
In data set [5] the test system is Mus musculus. Briefly: Antihyperlipidemic activity in ob/ob mouse assessed as cholesterol level at 10 mg/kg, po administered BID for 28 days measured 16 hrs post-last dose (reference value: 331.2+/-17.9 mg/dL). In kind it is functional.
In data set [6] the test system is Mus musculus. Briefly: Antidiabetic activity in ob/ob mouse assessed as Hb1Ac level at 10 mg/kg, po administered BID for 28 days measured 16 hrs post-last dose (reference value: 9.3+/-0.4%). In kind it is functional.
For data set [7], the system named is Rattus norvegicus. Briefly: Activation of hyphalamic-pituitary-adrenal axis in Sprague-Dawley rat assessed as change in corticosterone level at 100 mg/kg, po administered as single dose measured at 2 hrs relative to vehicle-treated control. In kind it is organism-based. On the set-up: dose 100 mg/kg, route oral. Particulars: in vivo.
Data set [8] is described as follows: Cmax in Sprague-Dawley rat at 20 mg/kg, po administered as single dose. In kind it is ADME, organism-based. On the set-up: dose 20 mg/kg, route oral. Particulars: in vivo.
A short description of data set [9]: AUC (0 to infinity) in Sprague-Dawley rat at 20 mg/kg, po administered as single dose. Also noted: time infinity, dose 20 mg/kg, route oral. Particulars: plasma. In kind it is ADME, organism-based.
A short description of data set [10]: Tmax in Sprague-Dawley rat at 20 mg/kg, po administered as single dose. In kind it is ADME, organism-based. On the set-up: dose 20 mg/kg, route oral. Particulars: in vivo.
Data set [11] concerns Rattus norvegicus. Briefly: Activation of hyphalamic-pituitary-adrenal axis in Sprague-Dawley rat assessed as change in ACTH level at 100 mg/kg, po administered as single dose measured at 2 hrs by ELISA relative to vehicle-treated control. In kind it is organism-based. Also noted: dose 100 mg/kg, route oral. Particulars: in vivo. Background: ELISA stands for enzyme-linked immunosorbent assay.

For data set [12], the system named is Mus musculus. Briefly: Hepatotoxicity in ob/ob mouse assessed as AST level at 10 mg/kg, po administered BID for 28 days measured st 16 hrs post-last dose (reference value: 332.2+/-39.1 U/L). Also noted: dose 10 mg/kg, route oral. Particulars: in vivo. In kind it is toxicity, organism-based.
Data set [13] relates to Mus musculus. Briefly: Antihyperlipidemic activity in ob/ob mouse assessed as triglyceride level at 10 mg/kg, po administered BID for 28 days measured 16 hrs post-last dose (reference value: 292.5+/-17.5 mg/dL). In kind it is functional.

As to `O=C(O)Cc1cc(Br)c(N(Cc2ccc(Oc3ccc(F)cc3F)cc2)Cc2cc(F)cc(F)c2)c(Br)c1`, the Activity in the data set with Mus musculus [1] was 353.2 U/L; in the data set with Mus musculus [2] it was 247.5 U/L; in the data set with Mus musculus [3], “Dose-dependent effect”; with Mus musculus [4] it was 1.32 mEq/L; in the data set with Mus musculus [5], 266.6 mg/dL; in the data set with Mus musculus [6], 6.7%. The Activity result was “Non-toxic” in the data set on Rattus norvegicus [7], “Non-toxic” in the data set with Rattus norvegicus [11], 345.3 U/L with Mus musculus [12] and 214.3 mg/dL in the data set with Mus musculus [13]. Besides, the peak level in data set [8] (Cmax) was 880 ng/mL. Moreover, the AUC(0-inf) in [9] came to 1390 ng·h/mL. For the same compound, the Tmax in data set [10] stood at 30.6 min.

What is called Cmax is the maximum level reached in the sampled fluid or tissue. In general, AUC(0-inf) refers to the area under the concentration-time curve extrapolated to infinity. Read a high AUC(0-inf) as more exposure. A word on the Tmax: it is the time from dosing to the highest level.

The record behind these values is ChEMBL document CHEMBL2086309, “Discovery of liver selective non-steroidal glucocorticoid receptor antagonist as novel antidiabetic agents” (Bioorg Med Chem Lett, 2012).
